# Where “and” joins values, the source holds several entries; their conditions need not be identical. Equal entries are not always repeated.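 1) Cells in 96-well plates. 2) Compound, 48 h, 5 concentrations. 3) Linear interpolation between surrounding doses. 4) Unreached endpoint = highest concentration. GI50 marks 50% less growth. TGI: total growth inhibition.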
# Tests used:
# Assay in all cases: DTP human tumour cell line panel, 48 h
# SNB-19 CNS = system: SNB-19 CNS
# NCI-H522 lung = system: NCI-H522 lung
# SNB-75 CNS = system: SNB-75 CNS
# SF-539 CNS = system: SF-539 CNS
# SF-295 CNS = system: SF-295 CNS
# HT29 colon = system: HT29 colon
# KM12 colon = system: KM12 colon
# BT-549 breast = system: BT-549 breast
# MDA-MB-435 = system: MDA-MB-435
# HS 578T breast = system: HS 578T breast
Structure (SMILES),TGI (SNB-19 CNS),TGI (NCI-H522 lung) [µM],TGI (SNB-75 CNS),TGI (SF-539 CNS),TGI (SF-295 CNS),TGI (HT29 colon) [µM],TGI (KM12 colon),TGI (BT-549 breast) [µM],TGI (MDA-MB-435) [µM],TGI (HS 578T breast) [µM],GI50 (SNB-19 CNS) [µM],GI50 (NCI-H522 lung) [µM],GI50 (MDA-MB-435) [µM],GI50 (HS 578T breast) [µM],GI50 (SF-295 CNS) [µM],GI50 (KM12 colon) [µM],GI50 (SNB-75 CNS) [µM],GI50 (BT-549 breast) [µM],GI50 (SF-539 CNS) [µM],GI50 (HT29 colon) [µM]
CS/C(C)=N/OC(=O)NCCCCNc1ccc(N=[N+]=[N-])cc1,> 100 µM,23.7,> 100 µM,> 100 µM,> 100 µM,> 100,> 100 µM,–,–,–,–,–,–,–,–,–,–,–,–,–
COc1cccc2nc3cc(C)c(C)cc3nc12,> 100 µM,> 100,> 100 µM,> 100 µM,> 100 µM,> 100,> 100 µM,–,–,–,–,–,–,–,–,–,–,–,–,–
CCOC(=O)c1nc(-c2ccccc2)oc1OCC,> 100 µM,> 100,> 100 µM,> 100 µM,> 100 µM,> 100,> 100 µM,–,–,–,–,–,–,–,–,–,–,–,–,–
O=c1[nH]c(-c2ccc(-c3nc4cc([N+](=O)[O-])ccc4c(=O)[nH]3)cc2)nc2cc([N+](=O)[O-])ccc12,> 100 µM,> 100,> 100 µM,> 100 µM,> 100 µM,> 100,> 100 µM,–,–,–,–,–,–,–,–,–,–,–,–,–
O=C1CCC2(c3ccccc3)Nc3ncccc3N12 (centres undefined),–,> 100,> 100 µM,> 100 µM,> 100 µM,> 100,> 100 µM,–,–,–,–,–,–,–,–,–,–,–,–,–
O=C(Nc1nc(=S)c2c(ncn2CCO)[nH]1)c1ccccc1,> 100 µM,> 100,> 100 µM,> 100 µM,> 100 µM,> 100,> 100 µM,–,–,–,–,–,–,–,–,–,–,–,–,–
CC(=O)Nc1ccc(/C=C/C(=O)c2sc(-c3nc(C)c(C(=O)/C=C/c4ccc(NC(C)=O)cc4)s3)nc2C)cc1,> 100 µM,> 100,–,> 100 µM,> 100 µM,> 100,> 100 µM,–,–,–,–,–,–,–,–,–,–,–,–,–
CC12CC(OC(=O)[C@]1(C)O)[C@@H]([C@]1(O)CC[C@H]3[C@@H]4C[C@H]5O[C@]56[C@@H](O)C=CC(=O)[C@]6(C)[C@H]4CC[C@@]31C)C2 (some centres undefined),> 100 µM,2.92,–,7.29 µM,> 100 µM,15.2,28.7 µM,9.57,29.4,35.7,–,–,–,–,–,–,–,–,–,–
O=C1NC2C=CN(Cc3ccccc3)C=C2C(=O)N2CCCC12 (centres undefined),> 100 µM,> 100,> 100 µM,> 100 µM,> 100 µM,> 100,> 100 µM,–,–,–,–,–,–,–,–,–,–,–,–,–
C=CC1C(OC2OC(CO)C(O)C(O)C2O)OC=C(C(=O)OC)C1CC=O (centres undefined),> 100 µM,–,> 100 µM,> 100 µM,> 100 µM,–,> 100 µM,–,–,–,–,–,–,–,–,–,–,–,–,–
C=CCNC(=O)NCCCC(NC(C)=O)C(=O)NCc1ccccc1 (centres undefined),> 100 µM,> 100,> 100 µM,> 100 µM,> 100 µM,> 100,> 100 µM,–,–,–,–,–,–,–,–,–,–,–,–,–
Cc1c(Cl)cccc1NC1=C(Cl)C(=O)N(Cc2ccccc2)C1=O,61.5 µM,> 100,–,–,14.4 µM,–,14 µM,–,20.8,24.8,22.1,17,8.55,10.9,3.01,2.17,–,–,–,–
CC1(C)CC[C@]2(C(=O)N3CCOCC3)CC[C@]3(C)C(=CC[C@@H]4[C@@]5(C)C/C(=C/c6ccncc6)C(=O)C(C)(C)[C@@H]5CC[C@]43C)[C@@H]2C1,27.7 µM,6.72,> 100 µM,3.7 µM,34.8 µM,54.5,> 100 µM,10,–,> 100,6.93,1.3,–,2.56,2.03,2.7,3.21,1.39,1.73,0.912
COC(=O)c1cc(-c2cccn2C)c2c(c1C(=O)OC)c1ccccc1n2C,> 100 µM,80.9,> 100 µM,> 100 µM,> 100 µM,> 100,> 100 µM,–,–,–,–,–,–,–,–,–,–,–,–,–
CCCOC(=O)CCn1c(SC)nc2[nH]cc(-c3ccccc3)c2c1=O,> 100 µM,32.5,57.6 µM,> 100 µM,52.4 µM,61.6,53.8 µM,–,38.5,> 100,31.7,11,17.5,28.1,11.1,18.7,13.4,–,24.9,15.5
CS/C(=N\c1nccs1)NC(=O)c1cccc(Cl)c1,> 100 µM,> 100,> 100 µM,> 100 µM,> 100 µM,> 100,> 100 µM,–,–,–,–,–,–,–,–,–,–,–,–,–
O=C(COc1cccc(/C=C2\COc3ccc(Cl)cc3C2=O)c1)c1ccc(Cl)cc1,27.7 µM,27.2,22.2 µM,28.7 µM,39.6 µM,20.2,11.2 µM,–,18.6,48.7,14.5,11.7,5.91,18.8,24.9,2.79,4.73,–,15.4,7.69
CN(C)c1ccc(C(=C2C=CC(=[N+](C)C)C=C2)c2ccc(N(C)C)cc2)cc1,1.48 µM and 1.71 µM,–,0.581 µM and 1.03 µM,1.03 µM and 1.23 µM,0.244 µM and 0.885 µM,0.158,0.397 µM and 0.93 µM,0.621,0.431,2.82,0.222,–,0.152,0.0875,–,0.0781,0.112,0.18,0.19,0.0363
CCCOc1nc(SCCC)nc2c1cnn2-c1ccccc1,> 100 µM,–,> 100 µM,> 100 µM,> 100 µM,–,> 100 µM,–,> 100,> 100,> 100,–,53.1,> 100,31.8,93.1,> 100,–,> 100,–
COc1ccc(-c2nn(-c3cccc(Cl)c3)cc2-c2cc(-c3ccccc3)nc(N)n2)cc1,43.8 µM,3.53,22 µM,27.7 µM,11.7 µM,4.32,4.39 µM,16.9,–,18.4,12.7,1.88,–,3.03,3.12,2.05,4.32,4.31,11,2.07
